Assay results as given in patent publication US12293809B2, “Workflow for generating compounds with biological activity against a specific biological target” (INSILICO MEDICINE IP LIMITED, priority 2019, dated 2025).
pIC50: −log10 of the molar value. Read-outs that look alike come from different tables or passages of the source.

Experiments:
hDDR2 = target: T1, hDDR2 (Homo sapiens, UniProt Q16832); assay: KinaseProfiler radiometric biochemical kinase assay (Eurofins)
T1 construct: purchased Eurofins
T1 sequence (Q16832 22-855): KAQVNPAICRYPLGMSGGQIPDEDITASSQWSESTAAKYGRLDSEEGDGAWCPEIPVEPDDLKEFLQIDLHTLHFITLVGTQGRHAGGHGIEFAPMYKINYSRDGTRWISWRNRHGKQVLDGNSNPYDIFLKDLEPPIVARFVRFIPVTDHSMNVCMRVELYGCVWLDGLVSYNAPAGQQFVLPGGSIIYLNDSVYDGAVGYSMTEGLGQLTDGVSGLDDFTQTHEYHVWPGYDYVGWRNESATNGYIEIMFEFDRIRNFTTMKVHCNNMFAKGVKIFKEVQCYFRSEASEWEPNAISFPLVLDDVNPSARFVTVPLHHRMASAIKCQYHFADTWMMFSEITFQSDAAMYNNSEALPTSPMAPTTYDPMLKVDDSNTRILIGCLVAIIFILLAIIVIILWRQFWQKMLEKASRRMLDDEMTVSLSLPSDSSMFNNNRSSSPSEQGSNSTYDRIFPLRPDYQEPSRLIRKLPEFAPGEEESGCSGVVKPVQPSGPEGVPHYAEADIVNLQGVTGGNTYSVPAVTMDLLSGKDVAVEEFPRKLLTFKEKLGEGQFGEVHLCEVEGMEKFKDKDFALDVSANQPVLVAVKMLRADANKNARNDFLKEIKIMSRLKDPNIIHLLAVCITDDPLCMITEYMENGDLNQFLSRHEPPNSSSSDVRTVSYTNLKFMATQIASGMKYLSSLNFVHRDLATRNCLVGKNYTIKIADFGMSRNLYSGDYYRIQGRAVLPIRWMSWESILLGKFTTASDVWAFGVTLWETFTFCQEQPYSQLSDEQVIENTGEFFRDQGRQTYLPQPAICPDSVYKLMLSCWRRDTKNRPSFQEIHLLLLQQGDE
Method: The experimental procedures were performed by Eurofins. The activity of the molecules against hDDR1 and hDDR2 kinases was assessed using KinaseProfiler^67. […] The enzymatic reaction processed in the presence of Mg^2+ cations and ATP at room temperature for 40 minutes and terminated by addition of phosphoric acid. […] All the compounds were prepared in 100% DMSO. […] The biological evaluation of selectivity against non-target kinases was performed in Dundee Eurofins, using Scan Max Delta Panel [10 μM ATP] KinaseProfiler^68.

Thermodynamic solubility = format: physicochemical
Method: (§1) Since Compound 2 contains an imidazolidine fragment typically unusual in drug discovery we experimentally assessed key properties for this molecule. […] The inhibition activity of Compounds 1 and 2 towards a small panel of key cytochrome P450 (CYP450) isoforms was also assessed in vitro (Table 2).

[1] = tested on: collagen α1 production in LX-2 cells; assay: LX-2 fibrosis assay, TGF-β stimulated (Western blot); format: cell-based, human
Method: (§2) Collagen α1, α-SMA, CTGF and GAPDH were traced using Western blot analysis. DMSO and SB-525334 were used as negative and positive controls, respectively.
(§3) Human hepatic stellate cells LX-2 were grown in DMEM (Invitrogen, 11960) supplied with 1% MEM Non-Essential Amino Acids (Invitrogen, 11140-050), 2% fetal bovine serum (Hyclone, SV30087.03), Penicillin (100 U/mL)-streptomycin (100 μg/mL) (Millipore, TMS-AB2-C) and 2 mM L-Glutamine (Invitrogen, 25030-001). After the cells grew in 12-well plates for 24 h, the cell culture medium was changed to the same as above except using 0.4% fetal bovine serum. After 20 h growth in the reduced serum medium, the cells were treated with indicated doses of compounds for 30 minutes. Subsequently, the cells were stimulated with 4 ng/mL TGF-β (R&D Systems, 240-B-002) for 48 h. The cells were rinsed twice with DPBS before being harvested with 100 μL RIPA buffer (Sigma, R0278) supplemented with protease inhibitor cocktail (Roche, 04693132001) at 4° C. The total protein in each sample was quantified using BCA Protein Assay Kit (Pierce™, 23227) and equal amount of total protein of each sample was subject to Western blot analysis. Antibodies used were mouse anti-α-Actin (SPM332) (sc-365970), mouse anti-CTGF (E5) (sc-365970), and mouse anti-collagen al (3G3) (sc-293182), from Santa Cruz Biotechnologies; and mouse anti-GAPDH (6C5) (EMD Millipore, MAB374).

[2] = tested on: CTGF production in LX-2 cells; assay: as above; format: cell-based, human
Method: as §2, §3

log D 7.4 = format: physicochemical; conditions: TFA salt
Method: as §1

[3] = 10 μM
Method: Test compounds (at 10 μM) were incubated at 25° C. with 50 mM phosphate buffer, pH=7.4 and 8 mM MOPS pH 7.0, 0.2 mM EDTA, pH=7.0. Duplicate samples were used. […] Curcumin was used as positive control in this assay at neutral-basic condition. Samples were analyzed by LC/MS/MS, disappearance of test compound was assessed based on peak area ratios of analyte/IS (no standard curve).

[4] = Mouse PK study, PO administration; format: in vivo
[5] = PO 15 mg/kg, M04-M06 individual, c4 Mean ± SD, 15 mg/kg, mean

O=C(Nc1cccc(C(=O)N2CCN(c3ccnc4[nH]ccc34)C2)c1)c1cccc(C(F)(F)F)c1 [Compound 2]
SI (selectivity index) DDR2 vs DDR1 (hDDR2): 3.6 | pIC50 (hDDR2; read-out: IC50 towards DDR2 kinase): 7.12 | thermodynamic solubility (Thermodynamic solubility): < 0.59 µg/mL | pIC50 ([1]; LX-2 cells, read-out: IC50, collagen assay): < 5.00 | CTGF production prevented ([2]; 14 nM): 43% | log D 7.4 (log D 7.4): 4.07 | % Remain ([3]; 8 mM MOPS pH 7.0, 0.2 mM EDTA, pH 7.0, 0 min): 100.00% | % Remain ([3]; 8 mM MOPS pH 7.0, 0.2 mM EDTA, pH 7.0, 120 min): 101.41% | % Remain ([3]; 8 mM MOPS pH 7.0, 0.2 mM EDTA, pH 7.0, 240 min): 103.81% | % Remain ([3]; 8 mM MOPS pH 7.0, 0.2 mM EDTA, pH 7.0, 360 min): 106.18% | % Remain ([3]; 8 mM MOPS pH 7.0, 0.2 mM EDTA, pH 7.0, 1440 min): 105.37% | % Remain ([3]; 50 mM phosphate buffer, pH 7.4, 0 min): 100.00% | % Remain ([3]; 50 mM phosphate buffer, pH 7.4, 120 min): 100.65% | % Remain ([3]; 50 mM phosphate buffer, pH 7.4, 240 min): 97.05% | % Remain ([3]; 50 mM phosphate buffer, pH 7.4, 360 min): 100.07% | % Remain ([3]; 50 mM phosphate buffer, pH 7.4, 1440 min): 107.23%

Cc1ccc2c(Nc3cccc(C(F)(F)F)c3)noc2c1C#Cc1cnc2cccnn12 [Compound 1]
activity towards DDR2 weaker than for DDR1 (hDDR2; DDR2 vs DDR1): 23 times | pIC50 ([1]; TGF-β stimulated LX-2 cells, normalized to GAPDH, read-out: IC50, collagen production): 7.89 | effect in CTGF assay ([2]; LX-2 cells): did not show the inhibition effect | Bioavailability ([4]; PO 15 mg/kg vs IV 10 mg/kg, calculated using AUC0-inf): 17.8 ± — % | AUC0-inf [4, 5]: 1911 ± 94.3 ng·h/mL | AUC0-last [4, 5]: 1896 ± 93.7 ng·h/mL | AUCExtra [4, 5]: 0.787 ± 0.278% | AUMCExtra [4, 5]: 4.01 ± 1.60% | Cmax [4, 5]: 276 ± 75.4 ng/mL | MRT0-inf [4, 5]: 5.73 ± 0.999 h | MRT0-last [4, 5]: 5.54 ± 1.000 h | T1/2 [4, 5]: 3.29 ± 0.278 h | Tmax [4, 5]: 2.33 ± 1.53 h | Tlast ([4]; PO 15 mg/kg, M04-M06 individual, c4 Mean, 15 mg/kg, mean): 24.0 ± — h
